The target of the data set is hERG channel (Homo sapiens, UniProt Q12809). The experiment in a line: Inhibition of the hERG channel. It counts as biochemical. The settings on record: for IC50: studies conducted by Wuxi AppTec.
Sequence of hERG channel (Q12809 whole entry): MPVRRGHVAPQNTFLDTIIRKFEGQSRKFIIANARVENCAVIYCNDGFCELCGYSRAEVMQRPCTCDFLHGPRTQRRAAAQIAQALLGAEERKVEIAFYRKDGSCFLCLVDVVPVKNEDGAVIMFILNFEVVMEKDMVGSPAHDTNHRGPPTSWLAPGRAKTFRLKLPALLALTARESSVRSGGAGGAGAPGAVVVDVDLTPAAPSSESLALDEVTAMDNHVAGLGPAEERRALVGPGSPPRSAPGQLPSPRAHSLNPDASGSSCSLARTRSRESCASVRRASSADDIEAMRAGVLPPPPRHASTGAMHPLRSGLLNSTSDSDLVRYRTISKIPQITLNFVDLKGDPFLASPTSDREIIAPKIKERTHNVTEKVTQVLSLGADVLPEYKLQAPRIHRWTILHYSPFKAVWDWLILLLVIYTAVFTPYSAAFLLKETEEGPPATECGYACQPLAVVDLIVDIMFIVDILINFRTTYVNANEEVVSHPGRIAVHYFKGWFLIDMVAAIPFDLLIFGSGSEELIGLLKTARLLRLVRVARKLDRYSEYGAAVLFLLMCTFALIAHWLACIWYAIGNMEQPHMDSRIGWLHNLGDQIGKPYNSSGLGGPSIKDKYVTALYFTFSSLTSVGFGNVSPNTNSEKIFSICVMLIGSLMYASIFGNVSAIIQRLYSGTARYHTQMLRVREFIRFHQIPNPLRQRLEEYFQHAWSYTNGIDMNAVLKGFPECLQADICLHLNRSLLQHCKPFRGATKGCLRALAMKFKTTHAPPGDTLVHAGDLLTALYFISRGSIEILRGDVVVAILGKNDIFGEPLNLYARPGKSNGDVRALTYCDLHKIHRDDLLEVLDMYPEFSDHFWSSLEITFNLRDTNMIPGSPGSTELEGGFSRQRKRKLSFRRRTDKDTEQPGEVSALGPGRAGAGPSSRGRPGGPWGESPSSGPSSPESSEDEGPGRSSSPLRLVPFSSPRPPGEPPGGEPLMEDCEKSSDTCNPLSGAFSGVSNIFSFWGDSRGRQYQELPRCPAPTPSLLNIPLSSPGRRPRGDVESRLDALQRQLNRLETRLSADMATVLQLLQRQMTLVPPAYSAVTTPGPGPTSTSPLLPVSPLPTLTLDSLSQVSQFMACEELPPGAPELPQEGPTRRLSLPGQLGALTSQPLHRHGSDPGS

The term IC50 denotes the concentration that gives 50% inhibition. Read a low IC50 as inhibition by little substance. `COc1nc2ccc(Br)cc2cc1[C@@H](c1cc(C)c(C)s1)[C@@](O)(CCN(C)C)c1cccc(F)c1` [Compound 9] showed an IC50 of 0.88 µM. Regarding `COc1cc([C@H](c2cc3cc(Br)ccc3nc2OC)[C@@](O)(CCN(C)C)c2cccc(F)c2)cnc1OC` [Compound 43], the IC50 is 1.9 µM. Under “versus compound 1”, the “improvement in hERG IC50 relative to 1” value was determined as 5 fold.

Turning to `COc1nc2ccc(Br)cc2cc1[C@@H](c1ccnc(OC)c1OC)[C@@](O)(CCN(C)C)c1cccc(C)c1` [Compound 45], inhibition was half-maximal at 0.53 µM (IC50).

These data come from publication PMC5696560 (Bioorganic & Medicinal Chemistry Letters, 2017).
